Source: ChEMBL document CHEMBL1201862, “PubChem BioAssay data set” (2004)
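Step 1: Grow cells in 96-well plates. Step 2: Expose to compound for 48 hours at 5 concentrations. Step 3: Interpolate endpoints linearly; if unreached, use highest concentration. The concentration for 50% growth inhibition is given as GI50.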 Active and inactive are the calls of the source. Cut-off read from the data, not from the text of the source: active = GI50 up to about 1.1 µM and inactive = higher.

Key:
Assay in all cases: inhibition of tumour cell growth, NCI panel, 48 h
786-0 = tested on: 786-0
A498 = tested on: A498
DU-145 = tested on: DU-145
HCT-116 = tested on: HCT-116
HL-60 = tested on: HL-60
IGROV-1 = tested on: IGROV-1
K562 = tested on: K562
KM12 = tested on: KM12
M14 = tested on: M14
MCF7 = tested on: MCF7
MOLT-4 = tested on: MOLT-4
OVCAR-3 = tested on: OVCAR-3
OVCAR-4 = tested on: OVCAR-4
OVCAR-8 = tested on: OVCAR-8
RPMI-8226 = tested on: RPMI-8226
SK-MEL-28 = tested on: SK-MEL-28
SK-MEL-5 = tested on: SK-MEL-5
SN12C = tested on: SN12C
UO-31 = tested on: UO-31
M19-MEL = tested on: M19-MEL

Row | Structure (SMILES) | GI50 (786-0) | GI50 (A498) | GI50 (DU-145) | GI50 (HCT-116) | GI50 (HL-60) | GI50 (IGROV-1) | GI50 (K562) | GI50 (KM12) | GI50 (M14) | GI50 (MCF7) | GI50 (MOLT-4) | GI50 (OVCAR-3) | GI50 (OVCAR-4) | GI50 (OVCAR-8) | GI50 (RPMI-8226) | GI50 (SK-MEL-28) | GI50 (SK-MEL-5) | GI50 (SN12C) | GI50 (UO-31) | GI50 (M19-MEL)
1 | COc1ccc(/C=C/C=C2C(=O)NC(=S)NC2=O)cc1 | 2.35 µM (inactive) | 33.9 µM (inactive) | 6.03 µM (inactive) | 4.7 µM (inactive) | 0.805 µM (active) | 3.91 µM (inactive) | 2.21 µM (inactive) | 8.79 µM (inactive) | 10.1 µM (inactive) | 7.74 µM (inactive) | 2.64 µM (inactive) | 6.78 µM (inactive) | 31.2 µM (inactive) | 4.03 µM (inactive) | 4.91 µM (inactive) | 1.76 µM (inactive) | 13.3 µM (inactive) | 7.35 µM (inactive) | 7.45 µM (inactive) | 
2 | CN(C)CCCN1c2ccccc2Sc2cnccc21 | 77.1 µM (inactive) | 31 µM (inactive) | > 100 µM (inactive) | 43.7 µM (inactive) | 74 µM (inactive) | > 100 µM (inactive) | 68.5 µM (inactive) | > 100 µM (inactive) | 52.2 µM (inactive) | 61 µM (inactive) | 60 µM (inactive) | 34 µM (inactive) | 93.8 µM (inactive) | > 100 µM (inactive) | 79.1 µM (inactive) | 39.1 µM (inactive) | 79.8 µM (inactive) | 74.1 µM (inactive) | > 100 µM (inactive) | 
3 | C=C1CC(Cn2cc(C)c(=O)[nH]c2=O)(c2ccc(Cl)cc2)OC1=O (stereo not drawn) | 1.56 µM (inactive) | 5.94 µM (inactive) | 4.65 µM (inactive) | 1.65 µM (inactive) | 0.863 µM (active) | 1.53 µM (inactive) | 0.673 µM (active) | 13.6 µM (inactive) | 1.22 µM (inactive) | 0.933 µM (active) | 0.94 µM (active) | 3.6 µM (inactive) | 1.72 µM (inactive) | 3.64 µM (inactive) | 0.414 µM (active) | 2.18 µM (inactive) | 2.67 µM (inactive) | 7.05 µM (inactive) | 12.9 µM (inactive) | 
4 | CC(=O)OC(CCC1(C)OC1COc1ccc(CCNC(=O)c2ccccc2)cc1)C(C)(C)OC(C)=O (stereo not drawn) | > 100 µM (inactive) |  |  | 0.794 µM (active) | 25.7 µM (inactive) | 39.5 µM (inactive) | 0.752 µM (active) | 15.6 µM (inactive) | 15.1 µM (inactive) |  | 4.19 µM (inactive) | 10.3 µM (inactive) | 19.7 µM (inactive) | 15.7 µM (inactive) | 18.6 µM (inactive) | 22 µM (inactive) | 1.1 µM (active) | > 100 µM (inactive) | 29.4 µM (inactive) | 18.4 µM (inactive)
5 | COc1cc2oc3cc(=O)cc4oc(-c5ccccc5)cc(c2c2c1CCC(c1ccccc1)O2)c43 (stereo not drawn) | 48.2 µM (inactive) | 50.4 µM (inactive) | 24.3 µM (inactive) | 29.2 µM (inactive) | 25 µM (inactive) | 33.1 µM (inactive) | 33 µM (inactive) | 17 µM (inactive) | 17.4 µM (inactive) | 7.66 µM (inactive) | 8.95 µM (inactive) | 26 µM (inactive) | > 100 µM (inactive) | 50 µM (inactive) | 3.34 µM (inactive) | 40.7 µM (inactive) | 20.4 µM (inactive) | 25.2 µM (inactive) | 55.6 µM (inactive) | 
